Test results as given in paper PMC5218480 (PLoS ONE, 2017).

System: MV-4-11 cells
Experiment: Gene expression microarray analysis (Affymetrix PrimeView) and GSEA
Type: cell-based, human
Design: RFU PODN (11730768_x_at) / Fold change /veh PODN (11730768_x_at) / RFU LINC00158 (11744669_a_at) / Fold change /veh LINC00158 (11744669_a_at) / RFU DUSP10 (11751237_a_at) / Fold change /veh DUSP10 (11751237_a_at) / RFU ID3 (11757404_x_at) / Fold change /veh ID3 (11757404_x_at) / RFU PLEKHG5 (11737974_s_at) / Fold change /veh PLEKHG5 (11737974_s_at) / RFU LRRC4B (11730491_at) / Fold change /veh LRRC4B (11730491_at) / RFU GIMAP4 (11747438_a_at) / Fold change /veh GIMAP4 (11747438_a_at) / RFU KRT8 (11758183_x_at) / Fold change /veh KRT8 (11758183_x_at) / RFU CNN1 (11734310_a_at) / Fold change /veh CNN1 (11734310_a_at) / RFU VPS37D (11726825_at) / Fold change /veh VPS37D (11726825_at) / RFU C10orf10 (11716522_x_at) / Fold change /veh C10orf10 (11716522_x_at) / RFU KIR2DL2 /// KIR2DL4 /// KIR2DL5A /// KIR2DL5B /// KIR2DS1 /// KIR2DS2 /// KIR2DS3 /// KIR2DS4 /// KIR3DL3 /// KIR3DL3 /// KIR3DS1 (11738374_at) / Fold change /veh KIR2DL2 /// KIR2DL4 /// KIR2DL5A /// KIR2DL5B /// KIR2DS1 /// KIR2DS2 /// KIR2DS3 /// KIR2DS4 /// KIR3DL3 /// KIR3DL3 /// KIR3DS1 (11738374_at) / RFU C1QL1 (11718748_at) / Fold change /veh C1QL1 (11718748_at) / RFU TMPRSS4 (11747572_a_at) / Fold change /veh TMPRSS4 (11747572_a_at) / RFU HAMP (11756126_x_at) / Fold change /veh HAMP (11756126_x_at) / RFU RNFT2 (11725882_a_at) / Fold change /veh RNFT2 (11725882_a_at) / RFU NR4A2 (11747474_a_at) / Fold change /veh NR4A2 (11747474_a_at) / RFU ABCC12 (11746883_a_at) / Fold change /veh ABCC12 (11746883_a_at) / RFU TMEM136 (11760407_x_at) / Fold change /veh TMEM136 (11760407_x_at) / RFU CLDN22 /// WWC2 (11732394_at) / Fold change /veh CLDN22 /// WWC2 (11732394_at) / RFU HLA-DPB1 (11760878_x_at) / Fold change /veh HLA-DPB1 (11760878_x_at) / RFU SPINT1 (11716480_a_at) / Fold change /veh SPINT1 (11716480_a_at) / RFU GAP43 (11754022_s_at) / Fold change /veh GAP43 (11754022_s_at) / RFU A4GNT (11735810_at) / Fold change /veh A4GNT (11735810_at) / RFU PRB3 (11715151_x_at) / Fold change /veh PRB3 (11715151_x_at) / RFU TUBB4B (11761932_at) / Fold change /veh TUBB4B (11761932_at) / RFU CAPN14 (11732068_a_at) / Fold change /veh CAPN14 (11732068_a_at) / RFU TMCC2 (11721928_a_at) / Fold change /veh TMCC2 (11721928_a_at) / RFU IRGQ (11745062_a_at) / Fold change /veh IRGQ (11745062_a_at) / RFU FAM174B (11720279_a_at) / Fold change /veh FAM174B (11720279_a_at) / RFU TMPRSS4 (11748680_a_at) / Fold change /veh TMPRSS4 (11748680_a_at) / RFU FAM212B (11763350_a_at) / Fold change /veh FAM212B (11763350_a_at) / RFU PLEKHG5 (11743358_a_at) / Fold change /veh PLEKHG5 (11743358_a_at) / RFU ZSCAN30 (11745921_a_at) / Fold change /veh ZSCAN30 (11745921_a_at) / RFU CMKLR1 (11741424_a_at) / Fold change /veh CMKLR1 (11741424_a_at) / RFU LOC101060620 /// MAPK8IP1 (11723275_at) / Fold change /veh LOC101060620 /// MAPK8IP1 (11723275_at) / RFU SPTSSB (11747773_x_at) / Fold change /veh SPTSSB (11747773_x_at) / RFU PRSS12 (11739890_at) / Fold change /veh PRSS12 (11739890_at) / RFU BIN1 (11741810_x_at) / Fold change /veh BIN1 (11741810_x_at) / RFU WNT11 (11732464_a_at) / Fold change /veh WNT11 (11732464_a_at) / RFU C10orf10 (11716521_a_at) / Fold change /veh C10orf10 (11716521_a_at) / RFU C5orf56 (11738089_at) / Fold change /veh C5orf56 (11738089_at) / RFU CYB561 (11721691_x_at) / Fold change /veh CYB561 (11721691_x_at) / RFU ANKRD19P (11752326_a_at) / Fold change /veh ANKRD19P (11752326_a_at) / RFU OR2T12 /// OR2T33 /// OR2T8 (11738714_s_at) / Fold change /veh OR2T12 /// OR2T33 /// OR2T8 (11738714_s_at) / RFU VCAN (11748164_a_at) / Fold change /veh VCAN (11748164_a_at) / RFU JSRP1 (11732532_at) / Fold change /veh JSRP1 (11732532_at) / RFU KRTAP10-11 (11738290_x_at) / Fold change /veh KRTAP10-11 (11738290_x_at) / RFU MYO3A (11730013_a_at) / Fold change /veh MYO3A (11730013_a_at) / RFU EBF3 (11725865_a_at) / Fold change /veh EBF3 (11725865_a_at) / RFU CAMK2N1 (11719241_x_at) / Fold change /veh CAMK2N1 (11719241_x_at) / RFU C5orf56 (11738088_a_at) / Fold change /veh C5orf56 (11738088_a_at) / RFU OLFML3 (11715873_a_at) / Fold change /veh OLFML3 (11715873_a_at) / RFU LOC100653217 /// NTM (11731650_a_at) / Fold change /veh LOC100653217 /// NTM (11731650_a_at) / RFU MAPK11 (11762145_a_at) / Fold change /veh MAPK11 (11762145_a_at) / RFU FIZ1 (11724087_x_at) / Fold change /veh FIZ1 (11724087_x_at) / RFU OASL (11726364_x_at) / Fold change /veh OASL (11726364_x_at) / RFU SOX15 (11748057_x_at) / Fold change /veh SOX15 (11748057_x_at) / RFU CD79A (11719716_a_at) / Fold change /veh CD79A (11719716_a_at) / RFU HIST1H1D (11736915_at) / Fold change /veh HIST1H1D (11736915_at) / RFU CASKIN2 (11723855_a_at) / Fold change /veh CASKIN2 (11723855_a_at) / RFU LOC730098 (11760151_x_at) / Fold change /veh LOC730098 (11760151_x_at) / RFU OR4N2 (11742367_at) / Fold change /veh OR4N2 (11742367_at) / RFU PRRT2 (11749266_a_at) / Fold change /veh PRRT2 (11749266_a_at) / RFU SNX32 (11753110_a_at) / Fold change /veh SNX32 (11753110_a_at) / RFU CDHR5 (11726645_a_at) / Fold change /veh CDHR5 (11726645_a_at) / RFU RCAN1 (11760418_a_at) / Fold change /veh RCAN1 (11760418_a_at) / RFU FAM167A (11723789_a_at) / Fold change /veh FAM167A (11723789_a_at) / RFU FAM26E (11764081_at) / Fold change /veh FAM26E (11764081_at) / RFU ISYNA1 (11749810_s_at) / Fold change /veh ISYNA1 (11749810_s_at) / RFU ACY1 (11761880_at) / Fold change /veh ACY1 (11761880_at) / RFU 11764098_at / Fold change /veh 11764098_at / RFU SAMD14 (11745864_x_at) / Fold change /veh SAMD14 (11745864_x_at) / RFU NPB (11741838_a_at) / Fold change /veh NPB (11741838_a_at) / RFU TMPRSS6 (11731388_a_at) / Fold change /veh TMPRSS6 (11731388_a_at) / RFU KRTAP10-2 (11738614_at) / Fold change /veh KRTAP10-2 (11738614_at) / RFU ARHGAP8 /// PRR5-ARHGAP8 (11727945_x_at) / Fold change /veh ARHGAP8 /// PRR5-ARHGAP8 (11727945_x_at) / RFU KRTAP5-7 /// NADSYN1 (11734609_at) / Fold change /veh KRTAP5-7 /// NADSYN1 (11734609_at) / RFU RASL12 (11751679_a_at) / Fold change /veh RASL12 (11751679_a_at) / RFU CDKN2B (11736163_a_at) / Fold change /veh CDKN2B (11736163_a_at) / RFU PRF1 (11729649_at) / Fold change /veh PRF1 (11729649_at) / RFU, ZNF638 /// ZNF638-IT1 / Fold change vs veh, ZNF638 /// ZNF638-IT1 / RFU, PANK3 / Fold change vs veh, PANK3 / RFU, SH3YL1 / Fold change vs veh, SH3YL1 / RFU, ZEB2 / Fold change vs veh, ZEB2 / RFU, NRIP1 / Fold change vs veh, NRIP1 / RFU, PTTG1IP / Fold change vs veh, PTTG1IP / RFU, CAPN2 / Fold change vs veh, CAPN2 / RFU, MED14 / Fold change vs veh, MED14 / RFU, SNORA58 / Fold change vs veh, SNORA58 / RFU, C1orf63 / Fold change vs veh, C1orf63 / RFU, LRRFIP1 / Fold change vs veh, LRRFIP1 / RFU, NDUFAF7 / Fold change vs veh, NDUFAF7 / RFU, SLC12A2 / Fold change vs veh, SLC12A2 / RFU, IBTK / Fold change vs veh, IBTK / RFU, ESF1 / Fold change vs veh, ESF1 / Fold change vs veh, TMEM50B / RFU, TAOK1 / Fold change vs veh, TAOK1 / RFU, ACBD3 / Fold change vs veh, ACBD3 / RFU, TMA16 / Fold change vs veh, TMA16 / RFU, RWDD3 / Fold change vs veh, RWDD3 / RFU, BCAT1 / Fold change vs veh, BCAT1 / RFU, EDEM3 / Fold change vs veh, EDEM3 / RFU, TMEM33 / Fold change vs veh, TMEM33 / RFU, WDR75 / Fold change vs veh, WDR75 / RFU, AHCTF1 / Fold change vs veh, AHCTF1 / RFU, TFRC / Fold change vs veh, TFRC / RFU, ZDHHC17 / Fold change vs veh, ZDHHC17 / RFU, NOM1 / Fold change vs veh, NOM1 / RFU, ARL8B / Fold change vs veh, ARL8B / RFU, ZBTB11 / Fold change vs veh, ZBTB11 / RFU, TAMM41 / Fold change vs veh, TAMM41 / RFU, KIAA1704 /// LOC100996395 / Fold change vs veh, KIAA1704 /// LOC100996395 / RFU, ING1 / Fold change vs veh, ING1 / RFU, TRMT61B / Fold change vs veh, TRMT61B / RFU, FUBP3 / Fold change vs veh, FUBP3 / RFU, TP53 / Fold change vs veh, TP53 / RFU, TNKS2 / Fold change vs veh, TNKS2 / RFU, ZFP14 / Fold change vs veh, ZFP14 / RFU, ACTR2 / Fold change vs veh, ACTR2 / RFU, PPP3R1 / Fold change vs veh, PPP3R1 / RFU, PIK3R1 / Fold change vs veh, PIK3R1 / RFU, HNRNPA1 / Fold change vs veh, HNRNPA1 / RFU, RNF170 / Fold change vs veh, RNF170 / RFU, ZNF28 / Fold change vs veh, ZNF28 / RFU, RNGTT / Fold change vs veh, RNGTT / RFU, OGT / Fold change vs veh, OGT / RFU, BRD1 / Fold change vs veh, BRD1 / RFU, MARS / Fold change vs veh, MARS / RFU, ZNF655 / Fold change vs veh, ZNF655 / RFU, FAHD1 / Fold change vs veh, FAHD1 / RFU, BDP1 / Fold change vs veh, BDP1 / RFU, LRRCC1 / Fold change vs veh, LRRCC1 / RFU, ARID1A / Fold change vs veh, ARID1A / RFU, ZNF146 / Fold change vs veh, ZNF146 / RFU, ZNF330 / Fold change vs veh, ZNF330 / RFU, GPN3 / Fold change vs veh, GPN3 / RFU, C9orf123 / Fold change vs veh, C9orf123 / RFU, N4BP2L2 / Fold change vs veh, N4BP2L2 / RFU, ARFIP1 / Fold change vs veh, ARFIP1 / RFU, FAM179B / Fold change vs veh, FAM179B / RFU, BCL10 / Fold change vs veh, BCL10 / RFU, UHRF1BP1L / Fold change vs veh, UHRF1BP1L / RFU, BET1 / Fold change vs veh, BET1 / RFU, CNOT2 / Fold change vs veh, CNOT2 / RFU, ZNF268 / Fold change vs veh, ZNF268 / Fold change vs veh, ZNF507 / RFU, DGCR2 / Fold change vs veh, DGCR2 / RFU, WDSUB1 / Fold change vs veh, WDSUB1 / Fold change vs veh, HSP90B1 /// MIR3652 / RFU, ADSS / Fold change vs veh, ADSS / RFU, GK / Fold change vs veh, GK / RFU, ZNF148 / Fold change vs veh, ZNF148 / RFU, TAF9 / Fold change vs veh, TAF9 / RFU, SLC1A5 / Fold change vs veh, SLC1A5 / RFU, SLMO2 / Fold change vs veh, SLMO2 / RFU, ABCC4 / Fold change vs veh, ABCC4 / RFU, LOC101060439 /// RAP1B / Fold change vs veh, LOC101060439 /// RAP1B / RFU, RFX7 / Fold change vs veh, RFX7 / RFU, GTPBP10 / Fold change vs veh, GTPBP10 / RFU, CNEP1R1 / Fold change vs veh, CNEP1R1 / RFU, BIVM-ERCC5 /// ERCC5 / Fold change vs veh, BIVM-ERCC5 /// ERCC5 / RFU, ILF3 / Fold change vs veh, ILF3 / RFU 11762660_at / Fold change /veh 11762660_at / RFU VCAN (11757783_s_at) / Fold change /veh VCAN (11757783_s_at) / RFU DDX43 (11728927_at) / Fold change /veh DDX43 (11728927_at) / RFU KRT8 (11758188_x_at) / Fold change /veh KRT8 (11758188_x_at) / RFU NKD1 (11759106_at) / Fold change /veh NKD1 (11759106_at) / RFU SRD5A1 (11742802_a_at) / Fold change /veh SRD5A1 (11742802_a_at) / RFU TPSAB1 /// TPSB2 (11721975_s_at) / Fold change /veh TPSAB1 /// TPSB2 (11721975_s_at) / RFU GSTM3 (11746129_a_at) / Fold change /veh GSTM3 (11746129_a_at) / RFU IL23R (11737362_x_at) / Fold change /veh IL23R (11737362_x_at) / RFU TMEM51 (11727254_a_at) / Fold change /veh TMEM51 (11727254_a_at) / RFU PIWIL2 (11732686_x_at) / Fold change /veh PIWIL2 (11732686_x_at) / RFU ORM1 (11744905_x_at) / Fold change /veh ORM1 (11744905_x_at) / RFU CCDC152 (11743942_at) / Fold change /veh CCDC152 (11743942_at) / RFU ECM1 (11717891_a_at) / Fold change /veh ECM1 (11717891_a_at) / RFU IL23R (11748794_a_at) / Fold change /veh IL23R (11748794_a_at) / RFU TNFAIP8L3 (11732012_x_at) / Fold change /veh TNFAIP8L3 (11732012_x_at) / RFU MBOAT4 (11741988_at) / Fold change /veh MBOAT4 (11741988_at) / RFU 11764193_at / Fold change /veh 11764193_at / RFU TMEM53 (11763286_at) / Fold change /veh TMEM53 (11763286_at) / RFU MAGEB2 (11727129_at) / Fold change /veh MAGEB2 (11727129_at) / RFU TMEM200A (11744735_a_at) / Fold change /veh TMEM200A (11744735_a_at) / RFU CCDC152 (11751479_a_at) / Fold change /veh CCDC152 (11751479_a_at) / RFU FAM211A (11726209_a_at) / Fold change /veh FAM211A (11726209_a_at) / RFU RGS16 (11746705_a_at) / Fold change /veh RGS16 (11746705_a_at) / RFU VCAN (11755009_s_at) / Fold change /veh VCAN (11755009_s_at) / RFU RHOB (11743442_s_at) / Fold change /veh RHOB (11743442_s_at) / RFU RGS16 (11720943_a_at) / Fold change /veh RGS16 (11720943_a_at) / RFU RGS16 (11720944_at) / Fold change /veh RGS16 (11720944_at) / RFU, VPS4B / Fold change vs veh, VPS4B / RFU, CREB1 / Fold change vs veh, CREB1 / RFU, DNAJC13 / Fold change vs veh, DNAJC13 / RFU, GNAQ / Fold change vs veh, GNAQ / RFU, CDK5R1 / Fold change vs veh, CDK5R1 / RFU, ZRANB3 / Fold change vs veh, ZRANB3 / RFU, CUL4A / Fold change vs veh, CUL4A / RFU, CCNY / Fold change vs veh, CCNY / RFU, UFL1 / Fold change vs veh, UFL1 / RFU, COG3 / Fold change vs veh, COG3 / RFU, DIAPH2 / Fold change vs veh, DIAPH2 / RFU, SKA2 / Fold change vs veh, SKA2 / RFU, AFF3 / Fold change vs veh, AFF3 / RFU, LMF1 / Fold change vs veh, LMF1 / RFU, IPO11 / Fold change vs veh, IPO11 / RFU, DFFB / Fold change vs veh, DFFB / RFU, FOXP1 / Fold change vs veh, FOXP1 / RFU, CARD8 / Fold change vs veh, CARD8 / RFU, STRN3 / Fold change vs veh, STRN3 / RFU, ADK / Fold change vs veh, ADK / RFU, RASSF2 / Fold change vs veh, RASSF2 / RFU, WIPF1 / Fold change vs veh, WIPF1 / RFU, LARP1B / Fold change vs veh, LARP1B / RFU, RASA1 / Fold change vs veh, RASA1 / RFU, RB1 / Fold change vs veh, RB1 / RFU, PPFIA1 / Fold change vs veh, PPFIA1 / RFU, MAT2A / Fold change vs veh, MAT2A / RFU, CCT5 / Fold change vs veh, CCT5 / RFU, WDR92 / Fold change vs veh, WDR92 / RFU, CUX1 / Fold change vs veh, CUX1 / RFU, TTC7A / Fold change vs veh, TTC7A / RFU, TMEM135 / Fold change vs veh, TMEM135 / RFU, DEPTOR / Fold change vs veh, DEPTOR / RFU, CPM / Fold change vs veh, CPM / RFU, DNAJB6 / Fold change vs veh, DNAJB6 / RFU, CACNA2D3 / Fold change vs veh, CACNA2D3 / RFU, DTX4 / Fold change vs veh, DTX4 / RFU, TFCP2 / Fold change vs veh, TFCP2 / RFU, GMCL1 /// GMCL1P1 / Fold change vs veh, GMCL1 /// GMCL1P1 / RFU, AEBP2 / Fold change vs veh, AEBP2 / RFU, SNHG1 /// SNORD22 /// SNORD25 /// SNORD26 /// SNORD27 /// SNORD28 /// SNORD29 /// SNORD31 / Fold change vs veh, SNHG1 /// SNORD22 /// SNORD25 /// SNORD26 /// SNORD27 /// SNORD28 /// SNORD29 /// SNORD31 / Fold change (Aza/veh), C12orf56 (ProbeSet 11735607_a_at) / Fold change (ACY-1035/veh), C12orf56 (ProbeSet 11735607_a_at) / Fold change (Aza/veh), FGFR1OP (ProbeSet 11751329_s_at) / Fold change (ACY-1035/veh), FGFR1OP (ProbeSet 11751329_s_at) / Fold change (Aza/veh), VPS36 (ProbeSet 11739960_a_at) / Fold change (ACY-1035/veh), VPS36 (ProbeSet 11739960_a_at) / RFU SYPL1 (11715823_x_at) / Fold change /veh SYPL1 (11715823_x_at) / RFU IGFBP7 (11715501_s_at) / Fold change /veh IGFBP7 (11715501_s_at) / RFU REEP3 (11722064_at) / Fold change /veh REEP3 (11722064_at) / RFU IGLL1 (11728026_x_at) / Fold change /veh IGLL1 (11728026_x_at): dose or concentration left out as unconfirmed
Details: MV-4-11 cells, 48 hours

Structure (SMILES): Nc1ccc(-c2cccs2)cc1NC(=O)c1ccc2c(c1)cc(C1CC1)n2CCN1CCOCC1 [ACY-1035]
- Fold change /veh 11764098_at: 1.17
